Test results taken from PubChem BioAssay (NCI).
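Grown in 96-well plates, cells were treated for 48 hours with each compound at five concentrations. Insufficient inhibition: endpoint recorded as highest concentration tested. TGI: total growth inhibition.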

What was measured:
Test in all cases: NCI-60 cell line screen, 48 h
TK-10 renal = system: TK-10 renal
HCC-2998 colon = system: HCC-2998 colon
UACC-257 melanoma = system: UACC-257 melanoma
SK-MEL-28 melanoma = system: SK-MEL-28 melanoma
MDA-MB-231 breast = system: MDA-MB-231 breast
MOLT-4 leukemia = system: MOLT-4 leukemia
T-47D breast = system: T-47D breast
SN12C renal = system: SN12C renal
SNB-19 CNS = system: SNB-19 CNS
HS 578T breast = system: HS 578T breast
MCF7 breast = system: MCF7 breast
A498 renal = system: A498 renal
OVCAR-8 ovarian = system: OVCAR-8 ovarian
SF-539 CNS = system: SF-539 CNS
OVCAR-3 ovarian = system: OVCAR-3 ovarian
SW-620 colon = system: SW-620 colon
SF-295 CNS = system: SF-295 CNS
K-562 leukemia = system: K-562 leukemia
HOP-92 NSCLC = system: HOP-92 NSCLC
DU-145 prostate = system: DU-145 prostate
SF-268 CNS = system: SF-268 CNS
PC-3 prostate = system: PC-3 prostate
HT29 colon = system: HT29 colon
HL-60(TB) leukemia = system: HL-60(TB) leukemia
786-0 renal = system: 786-0 renal
NCI-H23 lung = system: NCI-H23 lung
LOX IMVI melanoma = system: LOX IMVI melanoma
A549 NSCLC = system: A549 NSCLC
IGROV1 ovarian = system: IGROV1 ovarian
SK-MEL-2 melanoma = system: SK-MEL-2 melanoma
SK-MEL-5 melanoma = system: SK-MEL-5 melanoma
HCT-15 colon = system: HCT-15 colon
RXF 393 renal = system: RXF 393 renal
MDA-N = system: MDA-N
KM12 colon = system: KM12 colon
EKVX NSCLC = system: EKVX NSCLC
M14 melanoma = system: M14 melanoma
OVCAR-4 ovarian = system: OVCAR-4 ovarian
HCT-116 colon = system: HCT-116 colon
NCI-H522 lung = system: NCI-H522 lung
NCI-H460 lung = system: NCI-H460 lung
U251 CNS = system: U251 CNS
MALME-3M melanoma = system: MALME-3M melanoma
CAKI-1 renal = system: CAKI-1 renal
CCRF-CEM leukemia = system: CCRF-CEM leukemia
OVCAR-5 ovarian = system: OVCAR-5 ovarian
UACC-62 melanoma = system: UACC-62 melanoma
COLO 205 colon = system: COLO 205 colon
HOP-62 NSCLC = system: HOP-62 NSCLC
RPMI-8226 leukemia = system: RPMI-8226 leukemia
MDA-MB-435 = system: MDA-MB-435
NCI/ADR-RES ovarian = system: NCI/ADR-RES ovarian
SK-OV-3 ovarian = system: SK-OV-3 ovarian
SR leukemia = system: SR leukemia
BT-549 breast = system: BT-549 breast
UO-31 renal = system: UO-31 renal
NCI-H226 lung = system: NCI-H226 lung
ACHN renal = system: ACHN renal
SNB-75 CNS = system: SNB-75 CNS

COc1ccc(C2(C3c4cc(OC)c(OC)cc4CCN3C)SCCCS2)cc1O (configuration not stated)
TGI (TK-10 renal): > 100 µM | TGI (HCC-2998 colon): > 100 µM | TGI (UACC-257 melanoma): > 100 µM | TGI (SK-MEL-28 melanoma): > 100 µM | TGI (MDA-MB-231 breast): > 100 µM | TGI (MOLT-4 leukemia): > 100 µM | TGI (T-47D breast): > 100 µM | TGI (SN12C renal): > 100 µM | TGI (SNB-19 CNS): > 100 µM | TGI (HS 578T breast): > 100 µM | TGI (MCF7 breast): > 100 µM | TGI (A498 renal): > 100 µM | TGI (OVCAR-8 ovarian): > 100 µM | TGI (SF-539 CNS): > 100 µM | TGI (OVCAR-3 ovarian): > 100 µM | TGI (SW-620 colon): > 100 µM | TGI (SF-295 CNS): > 100 µM | TGI (K-562 leukemia): > 100 µM | TGI (HOP-92 NSCLC): > 100 µM | TGI (DU-145 prostate): > 100 µM | TGI (SF-268 CNS): > 100 µM | TGI (PC-3 prostate): > 100 µM | TGI (HT29 colon): > 100 µM | TGI (HL-60(TB) leukemia): > 100 µM | TGI (786-0 renal): > 100 µM | TGI (NCI-H23 lung): > 100 µM | TGI (LOX IMVI melanoma): > 100 µM | TGI (A549 NSCLC): > 100 µM | TGI (IGROV1 ovarian): > 100 µM | TGI (SK-MEL-2 melanoma): > 100 µM | TGI (SK-MEL-5 melanoma): > 100 µM | TGI (HCT-15 colon): > 100 µM | TGI (RXF 393 renal): > 100 µM | TGI (MDA-N): > 100 µM | TGI (KM12 colon): > 100 µM | TGI (EKVX NSCLC): > 100 µM | TGI (M14 melanoma): > 100 µM | TGI (OVCAR-4 ovarian): > 100 µM | TGI (HCT-116 colon): > 100 µM | TGI (NCI-H522 lung): > 100 µM | TGI (NCI-H460 lung): > 100 µM | TGI (U251 CNS): > 100 µM | TGI (MALME-3M melanoma): > 100 µM | TGI (CAKI-1 renal): > 100 µM | TGI (CCRF-CEM leukemia): > 100 µM | TGI (OVCAR-5 ovarian): > 100 µM | TGI (UACC-62 melanoma): > 100 µM | TGI (COLO 205 colon): > 100 µM | TGI (HOP-62 NSCLC): > 100 µM | TGI (RPMI-8226 leukemia): > 100 µM | TGI (MDA-MB-435): > 100 µM | TGI (NCI/ADR-RES ovarian): > 100 µM | TGI (SK-OV-3 ovarian): > 100 µM | TGI (SR leukemia): > 100 µM | TGI (BT-549 breast): > 100 µM | TGI (UO-31 renal): > 100 µM

Cc1ccc2nc(N/N=C/c3cccc(C)n3)cc(C)c2c1
TGI (TK-10 renal): 30.4 µM | TGI (HCC-2998 colon): 27.6 µM | TGI (UACC-257 melanoma): 31.8 µM | TGI (SK-MEL-28 melanoma): 33.2 µM | TGI (MDA-MB-231 breast): 36 µM | TGI (T-47D breast): 38.7 µM | TGI (SN12C renal): 34.2 µM | TGI (SNB-19 CNS): 44.8 µM | TGI (HS 578T breast): 50.9 µM | TGI (MCF7 breast): 32.5 µM | TGI (A498 renal): 37.6 µM | TGI (OVCAR-8 ovarian): 49.5 µM | TGI (NCI-H226 lung): 48.6 µM | TGI (SF-539 CNS): 38.3 µM | TGI (OVCAR-3 ovarian): 30 µM | TGI (SW-620 colon): 40.4 µM | TGI (SF-295 CNS): 31.6 µM | TGI (K-562 leukemia): > 100 µM | TGI (HOP-92 NSCLC): 37.2 µM | TGI (DU-145 prostate): 36.3 µM | TGI (SF-268 CNS): 38.7 µM | TGI (PC-3 prostate): 37.2 µM | TGI (HT29 colon): 27.3 µM | TGI (HL-60(TB) leukemia): > 100 µM | TGI (786-0 renal): 33.7 µM | TGI (NCI-H23 lung): 43.2 µM | TGI (LOX IMVI melanoma): 31.6 µM | TGI (A549 NSCLC): 43.4 µM | TGI (ACHN renal): 31.4 µM | TGI (IGROV1 ovarian): 32 µM | TGI (SK-MEL-2 melanoma): 34.8 µM | TGI (SK-MEL-5 melanoma): 36.4 µM | TGI (HCT-15 colon): 52.7 µM | TGI (RXF 393 renal): 31.6 µM | TGI (MDA-N): 32.5 µM | TGI (KM12 colon): 27.7 µM | TGI (EKVX NSCLC): 35.7 µM | TGI (M14 melanoma): 46.9 µM | TGI (OVCAR-4 ovarian): 41.5 µM | TGI (HCT-116 colon): 32.1 µM | TGI (NCI-H522 lung): 39.8 µM | TGI (NCI-H460 lung): 23.2 µM | TGI (U251 CNS): 33.4 µM | TGI (MALME-3M melanoma): 30.3 µM | TGI (CAKI-1 renal): 31 µM | TGI (OVCAR-5 ovarian): 28.5 µM | TGI (UACC-62 melanoma): 29.8 µM | TGI (COLO 205 colon): 32.6 µM | TGI (HOP-62 NSCLC): 36.8 µM | TGI (RPMI-8226 leukemia): 42.5 µM | TGI (MDA-MB-435): 32 µM | TGI (NCI/ADR-RES ovarian): 48 µM | TGI (SK-OV-3 ovarian): 30.2 µM | TGI (SR leukemia): 45.3 µM | TGI (BT-549 breast): 33.3 µM | TGI (UO-31 renal): 41.3 µM | TGI (SNB-75 CNS): 36.6 µM

CC(=O)NC1=CC(=O)c2cc(C)cc(O)c2C1=O
TGI (TK-10 renal): 45.9 µM | TGI (HCC-2998 colon): 5.69 µM | TGI (UACC-257 melanoma): 4.79 µM | TGI (SK-MEL-28 melanoma): 1.54 µM | TGI (MDA-MB-231 breast): 24.7 µM | TGI (MOLT-4 leukemia): 24.2 µM | TGI (T-47D breast): 35 µM | TGI (SN12C renal): 14.2 µM | TGI (SNB-19 CNS): > 62.7 µM | TGI (HS 578T breast): > 84.5 µM | TGI (MCF7 breast): 7.8 µM | TGI (A498 renal): 27.5 µM | TGI (OVCAR-8 ovarian): 18.7 µM | TGI (NCI-H226 lung): 38.5 µM | TGI (SF-539 CNS): 14.8 µM | TGI (OVCAR-3 ovarian): 8.37 µM | TGI (SW-620 colon): 10.6 µM | TGI (SF-295 CNS): 39.4 µM | TGI (K-562 leukemia): 14.7 µM | TGI (HOP-92 NSCLC): 22.7 µM | TGI (DU-145 prostate): 14.1 µM | TGI (SF-268 CNS): 22.6 µM | TGI (PC-3 prostate): 40.7 µM | TGI (HT29 colon): 46.9 µM | TGI (HL-60(TB) leukemia): 5.24 µM | TGI (786-0 renal): 27.3 µM | TGI (NCI-H23 lung): 5.21 µM | TGI (LOX IMVI melanoma): 7.74 µM | TGI (A549 NSCLC): 19 µM | TGI (ACHN renal): 23 µM | TGI (IGROV1 ovarian): 26.4 µM | TGI (SK-MEL-2 melanoma): 17.9 µM | TGI (SK-MEL-5 melanoma): 2.65 µM | TGI (HCT-15 colon): 13.8 µM | TGI (RXF 393 renal): 26.8 µM | TGI (MDA-N): 3.02 µM | TGI (KM12 colon): 33.4 µM | TGI (EKVX NSCLC): 31.7 µM | TGI (M14 melanoma): 3.53 µM | TGI (OVCAR-4 ovarian): 20.4 µM | TGI (HCT-116 colon): 16.3 µM | TGI (NCI-H522 lung): 20.2 µM | TGI (NCI-H460 lung): 36.1 µM | TGI (U251 CNS): 36.4 µM | TGI (MALME-3M melanoma): 4.33 µM | TGI (CAKI-1 renal): 42.9 µM | TGI (CCRF-CEM leukemia): 12.9 µM | TGI (OVCAR-5 ovarian): 26.1 µM | TGI (UACC-62 melanoma): 4.71 µM | TGI (COLO 205 colon): 13.3 µM | TGI (HOP-62 NSCLC): 35.2 µM | TGI (RPMI-8226 leukemia): 12.2 µM | TGI (MDA-MB-435): 1.96 µM | TGI (NCI/ADR-RES ovarian): 23.9 µM | TGI (SK-OV-3 ovarian): > 83.5 µM | TGI (SR leukemia): 37.3 µM | TGI (BT-549 breast): 18.9 µM | TGI (UO-31 renal): 20 µM | TGI (SNB-75 CNS): 37 µM
